From EP3551232B1, “STABLE F-DOPA FORMULATIONS AND USES THEREOF” (priority 2016, dated 2018)

Columns and labels:
[1] = in situ FT-IR monitoring of F-DOPA degradation in aqueous solution; format: physicochemical
Protocol: Aimed at better understanding the nature of the F-DOPA degradation products, the progress of the oxidation of F-DOPA was investigated by in situ FT-IR experiments at pH 8.0 and 5.15 at 25 °C (Figure 3).
Nevertheless, an overlapping of the carbonyl and carboxyl groups in the range 1670-1650 cm^-1 of the postulated o-quinone derivatives (Scheme 1) should occur in aqueous solution. However, similar o-quinone species show typical bands at 1660, 1480 and 1380 cm^-1, and are known to be very unstable turning black the solution upon standing. […] Thus, in situ IR experiments confirm the long-time stability of F-DOPA in acidic conditions (pH < 5.15) and the high propensity to undergo degradation under basic conditions. The pH-rate profile was carried out in order to obtain kinetic data.
The degradation pathway and the progress of the F-DOPA oxidation in aqueous solutions were further investigated by in situ FT-IR experiments at pH 8.0 and 5.15 at 25 °C. The experiments were carried out using a Mettler-Toledo ReactIR 4000 and Ic15 instruments equipped with a diamond-tipped (DiComp®) probe (Spectra elaborated with ConcIR® software), monitoring the C=O stretching of the F-DOPA and following new absorptions likely related to oxidized products (Castagnolo, D. et al. 2015; Mansueto, R. et al 2014). In a Schlenk tube equipped with a stirring bar and the React-IR probe, a 0.02 M F-DOPA aqueous solution at pH 5.15 was introduced via syringe at room temperature. Reference spectra for the pure solvent and F-DOPA were collected separately before starting the experiments. The solution was stirred for 10 min, to verify the stability of the readout, and spectra collected every 30 sec. The solution was then stirred for 24 h and constantly monitored by IR spectroscopy.

[2] = amount of F-DOPA dissolved in the formulation compositions; format: physicochemical; conditions: in the ND1, ND2 and ND3 compositions
Protocol: Optimum stability for F-DOPA in aqueous formulations is achieved by maintaining the pH at acidic values, by excluding oxygen and incorporating in the formula a chelating agent for metal ion initiators of free-radical oxidation reactions. […] In order to formulate F-DOPA at the optimum acidic pH range, the appropriate buffer was selected. Lactate buffer (1 mM, pH 5.0) was chosen to formulate the parenteral solution, firstly because lactic acid is currently used in intravenous solutions and is already present in commercial formulation and, secondly, because this solution has a pH value compatible with the direct infusion avoiding or minimizing the pain at the injection site. Finally, common methods for decelerating the initiation step require eliminating initiators and catalysts from the formulation. Metals ions can be sequestered by the use of chelators, such as EDTA, citric acid and tartaric acid. […] For comparison purposes the ND3 formulation, having the same commercially available formulation "master formula", was also prepared by solubilizing F-DOPA in an aqueous solution of 17.5 mM acetic acid (1.05 mg/mL, pH = 3.1). In order to mimic the commercial formulation, immediately before its use the pH of ND3 was adjusted to a higher pH value (measured pH = 7.2) by the addition of 100 µL per mL of a sterile solution of 1 M (84 mg/mL) sodium bicarbonate. […]

[3] = enantioselective HPLC (optical stability, racemization); format: physicochemical; conditions: 4 mg/mL, 24 h at both 25 and 45 °C, sterile perfusion solution at pH 6.0
Protocol: The HPLC system used to check the chemical stability of F-DOPA, related to its possible oxidation and racemization, consisted of a Waters Associates (Milford, MA, USA) model 1515 equipped with an isocratic pump, a Waters 2487 UV-vis detector, and the Breeze Software to analyze the chromatographic data. The HPLC analysis were performed on a reverse-phase column (Agilent Zorbax SB-Aq C8; 150 x 4.6 mm - 5 µm) kept at room temperature using detection wavelengths of 200 and 280 nm. The mobile phase consisted of 6.9 g/L solution of sodium dihydrogen phosphate adjusted to pH 2.4 with a 4.8 g/L solution of phosphoric acid, and the flow rate was 1 mL/min. The standard injection volume was 20 µL. […] To evaluate optical stability of F-DOPA, chromatograms were recorded on a teicoplanin aglycone-based chiral stationary phase (250 × 4.6 mm, particle size 5 µm, pore size 8 nm) CHIROBIOTIC (ASTEC, Whippany, NJ, USA), by eluting with a mixture 80% acetonitrile and 20% water, at a flow rate of 1 mL/min and a temperature of 25 °C.

[4] = cell viability assay, fiber counting (mortality rate); conditions: male, C57BL6, mouse
Protocol: (§1) Single fibers were isolated from the Flexor Digitorum Brevis (FDB) muscles dissected from male C57BL6 mice (N° of mice = 3). Isolated fibers were obtained by incubating the FDB muscles with Dulbecco's modified Eagle's medium (DMEM+) solution composed by IX antibiotics (1%), L-glutamine (1%), FBS (10%) (EuroClone, S.p.A. Milan, Italy) enriched with 0.3 mg/ml collagenase type XI-S (Sigma Chemical Co.).
(§2) For "in vitro" cell viability tests, the F-DOPA powder was directly solubilized in the complete cell culture medium (DMEM+). Stock solutions of ND1, ND2 and ND3 formulations were prepared at the concentration of 10 mg/ml. Microliter amounts of the stock solutions were then added to DMEM as needed, to obtain the final concentrations.
(§3) The fibers were plated, counted under a microscope, and incubated for 3h with increasing concentrations of F-DOPA, ND1, ND2 and ND3 formulations and an imaging analysis was then performed. At the end of the incubation time, the cytotoxicity expressed as mortality rate with respect to the control condition was evaluated by counting the fibers before and after the incubation period.
(§4) The mortality rate of the fibers and cells was calculated by the following equation: [(Ntreated/NCTRL)×100]−100 [formula] where Ntreated is the number of the treated cells and NCTRL is the number of untreated cells.
(§5) The following three parametric logistic function was used to fit the concentrationmortality data of different F-DOPA formulations: percentage change of the mortality rate(%) = Emax ((1+EC50/DOSE))^slope [formula] where Emax, is the maximal drug effect; EC50, is the concentration needed to cause the 50% percent change of the maximal effect; DOSE, is the applied concentration; slope, is the hill slope of the curve (SIGMAPlot 10.0, Systat Software, Inc.).

[5] = test system: mouse skeletal muscle fibers; experiment: as above; conditions: Mus musculus
Protocol: as §1, §2, §3, §4, §5

[6] = UV-Vis absorbance stability in sterile physiological solution; format: physicochemical
Text: This behavior was further supported by monitoring the change in UV-Vis absorbance of a pH 6.4 sterile physiological solution containing F-DOPA. […]

N[C@@H](Cc1cc(O)c(O)cc1F)C(=O)O [F-DOPA, (2S)-2-Amino-3-(6-fluoro-3,4-dihydroxyphenyl)propanoic acid]
loss of vC=O absorbance ([1]; buffer at pH = 8.0, within 2 h, 25 °C): 10% | additional peaks in the range 1800-1200 cm^-1 (FT-IR) ([1]; pH 5.15, after 16 h, 25 °C): no additional peaks | appearance of the transparent aqueous solution ([1]; stirring at pH = 8.0 for 24 h): turned to black | F-DOPA dissolved per mL [2]: 10 mg/mL | racemization [3]: no racemization occurs | mortality at 3 h, 0.02 mg/ml [4]: < 15% | mortality at 3 h, 0.05 mg/ml [4]: > 50% | Emax [5]: 100% | EC50 ([5]; 3 h): 185 µM | decrease in F-DOPA initial concentration ([6]; pH 6.4, degassed sterile 0.9% NaCl, 1 to 4 mg/mL, 25 or 45 °C, 6 h, absorbance at 298 nm): less than 5% | colour of sample ([6]; pH 6.4, sterile 0.9% NaCl, after 24 h incubation): pale pink color
